The target of series [1] is T1, P450 2A6 (Homo sapiens, UniProt P11509).
T1 sequence (P11509 1-494): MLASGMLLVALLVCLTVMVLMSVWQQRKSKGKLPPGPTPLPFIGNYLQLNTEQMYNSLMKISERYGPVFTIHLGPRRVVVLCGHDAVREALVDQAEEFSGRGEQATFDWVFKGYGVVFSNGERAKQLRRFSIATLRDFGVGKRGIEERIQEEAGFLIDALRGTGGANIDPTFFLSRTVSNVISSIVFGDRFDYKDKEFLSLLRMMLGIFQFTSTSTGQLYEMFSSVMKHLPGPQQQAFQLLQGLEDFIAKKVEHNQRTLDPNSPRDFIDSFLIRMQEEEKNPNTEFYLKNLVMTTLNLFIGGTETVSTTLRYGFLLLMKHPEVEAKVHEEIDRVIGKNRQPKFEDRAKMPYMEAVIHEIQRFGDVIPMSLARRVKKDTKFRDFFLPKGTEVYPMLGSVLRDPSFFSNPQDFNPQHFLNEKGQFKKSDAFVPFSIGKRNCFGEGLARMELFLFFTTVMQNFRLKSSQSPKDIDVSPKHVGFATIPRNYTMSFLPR
To be noted: pH 7.4.

For a further series, the target named is T2, P450 2A13 (Homo sapiens, UniProt Q16696).
T2 sequence (Q16696 with tags, fused parts or gaps limits assumed): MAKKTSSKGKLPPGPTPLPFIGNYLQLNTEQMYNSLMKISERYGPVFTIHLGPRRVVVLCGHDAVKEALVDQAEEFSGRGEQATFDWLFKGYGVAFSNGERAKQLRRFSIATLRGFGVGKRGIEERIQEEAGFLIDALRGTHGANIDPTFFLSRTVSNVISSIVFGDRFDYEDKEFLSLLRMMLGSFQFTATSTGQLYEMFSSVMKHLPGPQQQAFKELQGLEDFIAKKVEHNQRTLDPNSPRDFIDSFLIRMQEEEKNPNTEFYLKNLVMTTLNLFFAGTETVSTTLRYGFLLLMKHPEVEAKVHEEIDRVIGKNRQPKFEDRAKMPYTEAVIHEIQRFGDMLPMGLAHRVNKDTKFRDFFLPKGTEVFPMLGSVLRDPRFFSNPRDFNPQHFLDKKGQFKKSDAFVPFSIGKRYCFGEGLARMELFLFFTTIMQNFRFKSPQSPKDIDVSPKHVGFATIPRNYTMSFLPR
In words: Spectral binding titration with purified P450 2A13.

Series [2] concerns the target T3, human P450 2A13 (Homo sapiens, UniProt Q16696).
T3 sequence (Q16696 31-494 limits assumed): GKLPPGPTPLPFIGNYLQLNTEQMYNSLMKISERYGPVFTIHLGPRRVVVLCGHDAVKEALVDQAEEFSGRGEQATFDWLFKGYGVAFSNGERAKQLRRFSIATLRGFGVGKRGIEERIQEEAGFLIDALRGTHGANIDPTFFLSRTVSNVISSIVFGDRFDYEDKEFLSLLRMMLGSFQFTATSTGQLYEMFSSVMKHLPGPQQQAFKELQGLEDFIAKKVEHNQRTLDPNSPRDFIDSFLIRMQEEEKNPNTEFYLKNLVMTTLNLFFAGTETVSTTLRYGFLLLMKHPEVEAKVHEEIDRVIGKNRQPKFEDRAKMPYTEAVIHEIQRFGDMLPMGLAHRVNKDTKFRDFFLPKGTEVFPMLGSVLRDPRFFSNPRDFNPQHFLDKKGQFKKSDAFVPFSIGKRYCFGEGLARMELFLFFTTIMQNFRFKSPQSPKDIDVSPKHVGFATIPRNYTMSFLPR
To be noted: 10 nM P450, 2.5 µM procarcinogen, means ± range of duplicate experiments.

Series [3] concerns the target T4, P450 1B1 (Homo sapiens, UniProt Q16678, L432V).
T4 sequence (Q16678 1-543 L432V): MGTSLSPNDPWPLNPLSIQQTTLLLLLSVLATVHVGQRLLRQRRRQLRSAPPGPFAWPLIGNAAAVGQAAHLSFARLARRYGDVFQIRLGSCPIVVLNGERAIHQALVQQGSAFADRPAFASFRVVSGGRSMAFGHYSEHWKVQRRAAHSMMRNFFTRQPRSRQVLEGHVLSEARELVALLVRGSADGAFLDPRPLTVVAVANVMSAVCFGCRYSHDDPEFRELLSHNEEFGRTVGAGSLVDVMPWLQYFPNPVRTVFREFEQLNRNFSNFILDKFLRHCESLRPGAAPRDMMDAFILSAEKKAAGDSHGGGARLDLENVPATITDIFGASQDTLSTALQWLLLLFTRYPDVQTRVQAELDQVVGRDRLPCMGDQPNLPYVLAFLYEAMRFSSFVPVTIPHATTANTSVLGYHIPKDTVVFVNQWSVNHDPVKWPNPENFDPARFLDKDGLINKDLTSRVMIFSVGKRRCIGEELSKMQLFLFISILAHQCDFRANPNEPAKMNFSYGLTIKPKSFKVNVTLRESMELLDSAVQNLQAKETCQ
In words: Spectral binding titration with purified P450 1B1.

Series [4] deals with T4, P450 1B1. To be noted: 10 nM P450, 2.5 µM procarcinogen, means ± range of duplicate experiments.
Series [5] deals with T4, P450 1B1. As to conditions: pH 7.4.
In series [6] the target is T3, human P450 2A13. To be noted: pH 7.4.
The target in series [7] is T1, P450 2A6. In words: Spectral binding titration with purified P450 2A6.
The target in series [8] is T1, P450 2A6. As to conditions: 10 nM P450, 2.5 µM procarcinogen, means ± range of duplicate experiments.
Setting [9] is: P450 1B1, Reverse Type I spectra.
[10] abbreviates: P450 1B1, Reverse Type I spectra, ± SE.
Where [11] appears, read: P450 2A13, Type I spectra, ± SE.

A word on the Kd: it is the constant that tells how readily two partners part at equilibrium. A lower Kd goes with higher affinity.

Like-named read-outs stand apart in the source and are kept apart here. Where only a bound is given, the exact number is not on record here.

In the case of `OC1C=Cc2c(cc3ccc4cccc5ccc2c3c45)C1O` (racemic) [( ± )B[a]P-7,8-diol, 7,8-dihydroxy-7,8-dihydrobenzo[a]pyrene], the entries for the “activation of procarcinogens umu gene expression” value (from here on “activation”) at P450 2A6 [1], on human P450 2A13 [2] and on P450 1B1 [4] were 45 ± 11 units/min/nmol P450, 136 ± 22 units/min/nmol P450 and 2600 ± 110 units/min/nmol P450, respectively. The Kd was more than 20 µM on P450 2A13 and 6.8 ± 1.2 µM on P450 1B1 [3]. In addition, the “ΔAmax/ Ks” value on P450 1B1 [3] (setting [9]) is given as 0.0035. In addition, at P450 1B1 [3] (setting [10]), the ΔAmax was 0.024 ± 0.002.
With `Cc1c2ccccc2c(C)c2c1ccc1ccccc12` [7,12-DMBA, 7,12-dimethylbenz[a]anthracene], the “activation” value is 190 ± 21 units/min/nmol P450 on P450 1B1 [5], less than 10 units/min/nmol P450 on P450 2A6 [1] and less than 10 units/min/nmol P450 at human P450 2A13 [6]. In addition, the Kd at P450 2A13 was more than 20 µM; at P450 1B1 [3], 8.8 ± 1.3 µM. For the same compound, at P450 1B1 [3], the ΔAmax is 0.039 ± 0.002. On P450 1B1 [3], the “ΔAmax/ Ks” value is 0.0044.
Consider `Cc1c2ccccc2c(C)c2c3c(ccc12)C(O)C(O)C=C3` (stereo not drawn) [7,12-DMBA-3,4-diol, 3,4-dihydroxy-3,4-dihydro-7,12-dimethylbenz[a]anthracene], for which the “activation” value is 2700 ± 110 units/min/nmol P450 on P450 1B1 [5] (2.5 µM), 55 ± 13 units/min/nmol P450 on P450 2A6 [1] (2.5 µM) and 280 ± 33 units/min/nmol P450 on human P450 2A13 [6] (2.5 µM). The Kd at P450 2A13 (human, pH 7.4) is more than 20 µM; at P450 1B1 [3] (human, pH 7.4) it was more than 20 µM.
Consider `OC1C=Cc2c(ccc3cc4ccccc4cc23)C1O` (stereo not drawn) [B[a]A-trans-3,4-diol, 3,4-dihydroxy-3,4-dihydrobenz[a]anthracene], for which the “activation” value on P450 1B1 [5] (2.5 µM), on P450 2A6 [1] (2.5 µM) and on human P450 2A13 [6] (2.5 µM) was less than 10 units/min/nmol P450 each time. For the same compound, on P450 1B1 [3] (human, pH 7.4), the Kd was more than 20 µM.
Consider `c1ccc2c(c1)ccc1ccc3ccccc3c12` [B[c]Phe, benzo[c]phenanthrene], for which the figures for the Kd on P450 2A13, on P450 1B1 [3] and at P450 2A6 [7] were 1.1 ± 0.44 µM, 2.5 ± 0.31 µM and more than 20 µM, respectively. For the same compound, the “ΔAmax/ Ks” value at P450 2A13 (P450 2A13, Type I spectra) worked out at 0.045; at P450 1B1 [3] (setting [9]) it was 0.016. In addition, the ΔAmax on P450 2A13 (setting [11]) is listed as 0.049 ± 0.005; on P450 1B1 [3] (setting [10]), 0.039 ± 0.001. The “activation” value at human P450 2A13 [2] is listed as 55 ± 11 units/min/nmol P450; at P450 1B1 [4] it was 25 ± 10 units/min/nmol P450; on P450 2A6 [8], 22 ± 8 units/min/nmol P450.
Regarding `Cc1cnc2ccc3c(nc(N)n3C)c2n1` [MeIQx, 2-amino-3,8-dimethylimiidazo[4,5-f]quinoxaline], the “activation” value on P450 1B1 [5] turned out to be 87 ± 11 units/min/nmol P450; on P450 2A6 [1], 45 ± 15 units/min/nmol P450; at human P450 2A13 [6] it was 110 ± 15 units/min/nmol P450.
For `Cc1c(N)nc(C)c2c1[nH]c1ccccc12` [Trp-P-1, 3-amino-1,4-dimethyl-5H-pyrido[4,3-b]indole], the “activation” value worked out at 910 ± 90 units/min/nmol P450 at P450 1B1 [5], 61 ± 11 units/min/nmol P450 at P450 2A6 [1] and 40 ± 9 units/min/nmol P450 on human P450 2A13 [6]. In addition, at P450 1B1 [3], the Kd was more than 20 µM.
For the compound `c1cc2c3c(cccc3c1)CC2` [acenaphthene], the Kd at P450 2A13 is 0.48 ± 0.1 µM; at P450 1B1 [3], more than 20 µM; on P450 2A6 [7] it was 1.2 ± 0.21 µM. The “ΔAmax/ Ks” value at P450 2A13 (P450 2A13, Type I spectra) stood at 0.15; at P450 2A6 [7] (P450 2A6, Type I spectra), 0.057. In addition, the ΔAmax is recorded as 0.074 ± 0.005 at P450 2A13 (setting [11]) and 0.068 ± 0.002 at P450 2A6 [7] (P450 2A6, Type I spectra, ± SE). Besides, the “activation” value on human P450 2A13 [2], on P450 1B1 [4] and on P450 2A6 [8] was less than 10 units/min/nmol P450 each time. The “spectral interaction with P450 2A6 (Type I binding spectra)” value on P450 2A6 [7] (result in words) is listed as “interacted”.
Regarding `C1=Cc2cccc3cccc1c23` [acenaphthylene], the “activation” value on P450 1B1 [5] (2.5 µM), on P450 2A6 [1] (2.5 µM) and on human P450 2A13 [6] (2.5 µM) was less than 10 units/min/nmol P450 throughout. Besides, the Kd at P450 2A13 was 0.61 ± 0.19 µM; on P450 1B1 [3], more than 20 µM; on P450 2A6 [7], 4.4 ± 0.52 µM. The ΔAmax on P450 2A13 turned out to be 0.050 ± 0.004; on P450 2A6 [7], 0.076 ± 0.52. The “ΔAmax/ Ks” value on P450 2A13 was determined as 0.082; at P450 2A6 [7] it was 0.017. In addition, the “spectral interaction with P450 2A6 (Type I binding spectra)” value at P450 2A6 [7] is listed as “interacted”.
For `c1ccc2c(c1)-c1cccc3cccc-2c13` [fluoranthene], the “activation” value on P450 1B1 [5], at P450 2A6 [1] and on human P450 2A13 [6] was less than 10 units/min/nmol P450 each time. Besides, the Kd on P450 2A13 was 2.4 ± 1.5 µM; at P450 1B1 [3], 1.6 ± 0.32 µM; on P450 2A6 [7] it was more than 20 µM. For the same compound, the ΔAmax at P450 2A13 came out at 0.044 ± 0.011; at P450 1B1 [3], 0.066 ± 0.003. For the same compound, the “ΔAmax/ Ks” value turned out to be 0.018 on P450 2A13 and 0.042 on P450 1B1 [3].

These data come from publication PMC3713097 (Chemical research in toxicology, 2013).
